Columns and labels:
[1] = test system: mice; conditions: mice (McAllister, 1990); cited from earlier work
[2] = test system: C57BL/6 mice; conditions: chronic exposure (i.c.v.), low baseline aggressiveness (Lumley, Soc. Neurosci); cited from earlier work
[3] = test system: SJL mice; assay: social interaction test with a non-aggressive conspecific in long-term individually housed hyperaggressive mice (isolation-induced aggression); format: in vivo; conditions: for mice that attacked: vehicle 8 of 8
Source text: It is well-established that housing in isolation for significant periods of time will enhance the natural tendency of cage resident mice to attack an “intruder” mouse placed in their home cage. The isolation model in mice is the most appropriate model for screening drugs for anti-aggression potential. We tested whether acute exposure to the NAALADase inhibitor [2-[(pentafluorophenylmethyl) hydroxyphosphinyl]methyl-pentanedioic acid, administered prior to a social interaction test, would inhibit aggressive behavior in SJL mice that had been individually housed for eight months. [2-[(pentafluorophenylmethyl) hydroxyphosphinyl]methyl-pentanedioic acid (30 mg/kg, i.p.) was administered 30 minutes prior to a social interaction test to pharmacologically naive male mice which had been selected and behaviorally shaped to be hyperaggressive, and had consistently shown markedly aggressive behaviors in prior interactions with intruder mice. Administration of [2-[(pentafluorophenylmethyl) hydroxyphosphinyl]methyl-pentanedioic acid (30 mg/kg, i.p.) inhibited aggression, indicated by greater latencies to display tail-rattling, attack and bite, and fewer tail-rattling responses to a non-aggressive conspecific, relative to vehicle. In addition, fewer mice that received [2-[(pentafluorophenylmethyl) hydroxyphosphinyl]methyl-pentanedioic acid (30 mg/kg) initiated attack, relative to those that received vehicle.
We hypothesized that similar to the effects of NMDA antagonists, NAALADase inhibition and therefore increased NAAG, would inhibit aggressiveness under conditions of high basal levels of aggressiveness. We administered the NAALADase inhibitor [2-[(pentafluorophenylmethyl) hydroxyphosphinyl]methyl-pentanedioic acid prior to a social interaction test in a novel cage and measured behavioral responses to a non-aggressive conspecific; a novel cage was used to lower the levels of aggressiveness. The paradigm used was adapted from File (reviewed in Crawley, 2000).
Principles of laboratory animal care (NIH publication No. 85-23, revised 1985) were followed. […] In addition, these mice had been used to socially defeat mice that were used as subjects in numerous other studies. These highly aggressive SJL had no previous drug exposure. At the end of 8 months of training, subjects weighed 30-37 grams and had attack latencies of less than 30 sec when exposed to an obx. During the social interaction test, two C57BL/6 male mice (30-33 g; Jackson Laboratories), which were screened for non-aggressiveness and unfamiliar to the subjects, were used as stimulus mice.
[2-[(pentafluorophenylmethyl) hydroxyphosphinyl]methyl-pentanedioic acid, MW 390.2 (3 mg/kg or 30 mg/kg in 50 mM Hepes in 0.9% saline; pH 7.2; Guilford Pharmaceuticals) or vehicle (50 mM Hepes in 0.9% saline; pH 7.2) was administered intraperitoneally (i.p.; 10 ml/kg) 30 min. prior to a 4 min. social interaction test. Subject mice were placed in a novel cage (48×27×20 cm) along with a non-aggressive male conspecific and tested under low illumination (red lights) during the dark phase of their cycle. Methods for various social interaction tests reviewed in Crawley et al. (2000). Tests were videotaped and behaviors were scored using a computer program (Hindsight, Scott Weiss, UK), by two observers blind to the treatment. Behavioral measures included 1) measures of aggressiveness or threat: attack, bite, chase or follow, grooming conspecific, tail rattling 2) measures of exploratory and locomotor activity: walking, rearing, digging, 3) measures of defensiveness: defensive posture (crouch, upright) and flight. Details on behavioral measurements may be found in Grant and McIntosh, 1963; Lumley et al., 2000; Crawley, 2000.
One-way analysis of variance was performed for each behavioral measure with drug dose as the independent factor. Data were further probed using Dunnet=s test.

[4] = test system: individually housed mice; conditions: cited from earlier work

C[C@]12N[C@H](Cc3ccccc31)c1ccccc12 [dizocilpine]
aggression [1]: increased aggression

O=C(O)CCC(CP(=O)(O)O)C(=O)O (stereo not shown) [2-PMPA, 2-(phosphonomethyl)-pentanedioic acid]
aggressiveness [2]: increase aggressiveness

O=C(O)CCC(CP(=O)(O)Cc1c(F)c(F)c(F)c(F)c1F)C(=O)O (stereo not shown) [[2-[(pentafluorophenylmethyl) hydroxyphosphinyl]methyl-pentanedioic acid]
mice that attacked ([3]; 3 mg/kg): 7 of 10 | latency to attack ([3]; 30 mg/kg i.p., 30 min before 4 min test, relative to vehicle, F (2, 26)=2.36): increased latencies | latency to bite ([3]; 30 mg/kg i.p., 30 min before 4 min test, relative to vehicle, F (2, 26)=2.82): increased latencies | latency to display tail-rattling ([3]; 30 mg/kg i.p., 30 min before 4 min test, relative to vehicle, F (2, 26)=7.41): increased latencies | number of tail-rattling responses ([3]; 30 mg/kg, relative to vehicle, F (2, 26)=3.66): tended to display fewer tail-rattling responses | mice that attacked ([3]; 30 mg/kg): 4 of 9 | percent of mice that attacked the conspecific ([3]; 30 mg/kg, vehicle 100%): 44% | defensive responses ([3]; 3 or 30 mg/kg i.p., few mice displayed any): no effect | number of attacks ([3]; in mice displaying the behavior, 3 or 30 mg/kg i.p., F (2,18)=0.11): no effect | number of bites ([3]; in mice displaying the behavior, 3 or 30 mg/kg i.p., F (2, 26)=0.31): no effect | number of attacks in the 4 of 9 treated mice that attacked ([3]; relative to vehicle-treated mice, not significant): tended to have more attacks | tail rattling responses as stated in the discussion ([3]; relative to vehicle, dose not stated): more tail rattling responses than vehicle

c1ccc(C2(N3CCCCC3)CCCCC2)cc1 [PCP, phencyclidine]
aggressiveness ([4]; individually housed mice (Wilmot et al., 1987)): increased aggressiveness | number of mice that displayed attack ([4]; individually housed mice): reduced the number of mice that displayed attack

Source: patent US20030162694A1, “Novel treatment for pathological aggression” (priority 2002, published 2003)
